test system: Influenza strain A549 A/WSN/33 (H1N1); experiment: Influenza Antiviral Assay; format: cell-based, Influenza A virus; conditions: Influenza A virus, A549, 20 h, neuraminidase fluorescence readout, read-out: % Inhibition

Compound | EC50 [µM]
COc1ccc(NC(=O)c2nn(CC3(c4ccccc4)CCCC3)cc(O)c2=O)cc1 [Compound 697] | > 100
CNC(=O)c1nn(CC2(c3cccc(-c4ccncc4)c3)CCCC2)cc(O)c1=O [Compound 732] | > 100
CNC(=O)c1nn(CC2(c3ccc(-c4ccc5c(c4)OCO5)cc3)CC2)cc(O)c1=O [Compound 737] | < 20
CNC(=O)c1nn(CC2(c3cccc(-c4ccc(OC)nc4)c3)CCCC2)cc(O)c1=O [Compound 734] | > 100
O=C(NCc1ccc(F)c(Cl)c1)c1nn(CC2(c3ccc(-c4ccccc4)cc3)CCCC2)cc(O)c1=O [Compound 746] | > 100
CNC(=O)c1nn(CC2(c3cccc(-c4cn[nH]c4)c3)CC2)cc(O)c1=O [Compound 712] | > 100
O=C(NCc1ccccn1)c1nn(CC2(c3ccccc3)CCCC2)cc(O)c1=O [Compound 691] | < 20
CNC(=O)c1nn(CC(Cc2ccccc2)c2cccc(C(F)(F)F)c2)cc(O)c1=O (stereo not drawn) [Compound 647] | < 20
O=C(Nc1ccc(Cl)c(C(F)(F)F)c1)c1nn(CC2(c3ccccc3)CCCC2)cc(O)c1=O [Compound 719] | > 100
Cc1[nH]c2ccc(CNC(=O)c3nn(CC4(c5cccc(C(F)(F)F)c5)CCCC4)cc(O)c3=O)cc2c1C [Compound 672] | < 20
CNC(=O)c1nn(CC2(c3cccc(-c4ccnn4C)c3)CCCC2)cc(O)c1=O [Compound 731] | > 100
CNC(=O)c1nn(C(Cc2ccccc2)C(=O)Nc2ccccc2)cc(O)c1=O (stereo not drawn) [Compound 668] | > 100
CNC(=O)c1nn(CC2(c3cccc(-c4ccn[nH]4)c3)CCCC2)cc(O)c1=O [Compound 767] | < 20
CC(C)Oc1ccc(NC(=O)c2nn(CC3(c4ccccc4)CCCC3)cc(O)c2=O)cc1 [Compound 706] | > 100
CNC(=O)c1nn(CC2(c3ccc(-c4ccnn4C)cc3)CCCC2)cc(O)c1=O [Compound 779] | > 100
CNC(=O)c1nn(CC2(c3ccc(C(C)C)cc3)CC2)cc(O)c1=O [Compound 688] | < 20
CNC(=O)c1nn(CC2(c3ccc(-c4cc[nH]n4)cc3)CCCC2)cc(O)c1=O [Compound 780] | < 20
CNC(=O)c1nn(CC2(c3cccc(C4CCCCC4)c3)CCCC2)cc(O)c1=O [Compound 711] | < 20
CNC(=O)c1nn(CC2(c3ccc(C4CCCCC4)cc3)CC2)cc(O)c1=O [Compound 729] | > 100
CNC(=O)c1nn(CC2(c3cccc(-c4ccnn4C)c3)CC2)cc(O)c1=O [Compound 713] | > 100
CC(NC(=O)c1nn(CC2(c3cccc(C(F)(F)F)c3)CCCC2)cc(O)c1=O)c1ccccc1 (stereo not drawn) [Compound 637] | < 20
O=C(NCc1ccccc1)c1nn(CC2(c3ccccc3)CCCC2)cc(O)c1=O [Compound 698] | < 20
CNC(=O)c1nn(C(Cc2ccccc2)C(=O)NC)cc(O)c1=O (stereo not drawn) [Compound 667] | > 100
CNC(=O)c1nn(CC2(c3cccc(-c4ccco4)c3)CCCC2)cc(O)c1=O [Compound 745] | < 20
CNC(=O)c1nn(Cc2cc(C(F)(F)F)ccc2-c2ccccc2)cc(O)c1=O [Compound 689] | > 100
Cc1cc(OCC2CC2)cc(-c2ccccc2-n2cc(O)c(=O)c(C(=O)O)n2)c1 [Compound 653] | > 100
CNC(=O)c1nn(CC2(c3cccc(Oc4ccccc4)c3)CCCC2)cc(O)c1=O [Compound 725] | < 20

Compound | EC50 [µM]
CNC(=O)c1nn(CC2(c3ccc(OC)cc3)CC2)cc(O)c1=O [Compound 675] | > 100
CNC(=O)c1nn(CC2(c3cccc(-c4cnc5ccccc5c4)c3)CC2)cc(O)c1=O [Compound 726] | < 20
CNC(=O)c1nn(CC2(n3cc(-c4cncnc4)c4cccnc43)CCCC2)cc(O)c1=O [Compound 673] | > 100
CNC(=O)c1nn(Cc2ccccc2-c2ccc(C(C)(C)C)cc2)cc(O)c1=O [Compound 642] | > 100
CNC(=O)c1nn(CC2(c3cccc(-c4ccco4)c3)CC2)cc(O)c1=O [Compound 739] | > 100
CS(=O)(=O)c1ccc(NC(=O)c2nn(CC3(c4ccccc4)CCCC3)cc(O)c2=O)cc1 [Compound 721] | > 100
CNC(=O)c1nn(CC2(c3cccc(-c4cnn(C)c4)c3)CC2)cc(O)c1=O [Compound 748] | > 100
O=C(NCc1ccc(F)c(Cl)c1)c1nn(CC2(c3cccc(Oc4ccccc4)c3)CCCC2)cc(O)c1=O [Compound 751] | > 100
CNC(=O)c1nn(CC2(c3cccc(-c4cncc(F)c4)c3)CCCC2)cc(O)c1=O [Compound 736] | > 100
CNC(=O)c1nn(CC2(c3cccc(-c4ccoc4)c3)CC2)cc(O)c1=O [Compound 744] | > 100
CNC(=O)c1nn(-c2ccccc2-c2cc(C)cc(OCC3CC3)c2)cc(O)c1=O [Compound 652] | > 100
CNC(=O)c1nn(CC2(c3cccc(-c4cn[nH]c4)c3)CCCC2)cc(O)c1=O [Compound 714] | > 100
O=C(NCc1cccnn1)c1nn(CC2(c3ccccc3)CCCC2)cc(O)c1=O [Compound 699] | < 20
CNC(=O)c1nn(CC2(c3cccc(-c4cnc5ccccc5c4)c3)CCCC2)cc(O)c1=O [Compound 735] | > 100
CNC(=O)c1nn(CC2(c3cccc(-c4cnn(C)c4)c3)CCCC2)cc(O)c1=O [Compound 769] | > 100
CNC(=O)c1nn(-c2ccccc2-c2ccc3ccncc3c2)cc(O)c1=O [Compound 651] | 20 to 100
CNC(=O)c1nn(Cc2cc(C(F)(F)F)ccc2-c2ccc(C(C)(C)C)cc2)cc(O)c1=O [Compound 690] | > 100
O=C(Nc1ccc(Cl)cc1Cl)c1nn(CC2(c3ccccc3)CCCC2)cc(O)c1=O [Compound 707] | < 20
CNC(=O)c1nn(CC2(c3cccc(OC(F)(F)F)c3)CCCC2)cc(O)c1=O [Compound 684] | < 20
CNC(=O)c1nn(CC2(c3ccc(-c4ccncc4)cc3)CCCC2)cc(O)c1=O [Compound 781] | < 20
CNC(=O)c1nn(CC2(c3cccc(-c4cncc(F)c4)c3)CC2)cc(O)c1=O [Compound 727] | > 100
CNC(=O)c1nn(CC2(c3cccc(C(C)C)c3)CC2)cc(O)c1=O [Compound 702] | < 20
CNC(=O)c1nn(CC2(c3ccc(-c4ccnn4C)cc3)CC2)cc(O)c1=O [Compound 710] | > 100
CNC(=O)c1nn(CC2(c3ccc(-c4cn[nH]c4)cc3)CC2)cc(O)c1=O [Compound 728] | > 100
CC(C)(C)c1ccc(-c2ccccc2Cn2cc(O)c(=O)c(C(=O)O)n2)cc1 [Compound 657] | > 100
CNC(=O)c1nn(-c2ccccc2Sc2cccc(Cl)c2)cc(O)c1=O [Compound 643] | > 100

molecular target: EN PA (Influenza A virus, UniProt P15659); experiment: EN PA FRET Inhibition Assay; format: biochemical; conditions: read-out: Potency

Compound | IC50 [µM]
O=C(O)c1nn(-c2ccccc2-c2ccc(F)cc2)cc(O)c1=O [Compound 306] | 0.1 to 1
Cc1cccc(-c2ccccc2-n2cc(O)c(=O)c(C(=O)O)n2)c1C [Compound 309] | ≥ 1
CC(C)(C)c1ccccc1-n1cc(O)c(=O)c(C(=O)O)n1 [Compound 16] | 0.1 to 1
O=C(O)c1nn(-c2ccccc2N2CCOCC2)cc(O)c1=O [Compound 41] | 0.1 to 1
CNC(=O)c1nn(CCc2cccc3ccccc23)cc(OC(C)=O)c1=O [Compound 636] | ≥ 1
COc1ccc(CCn2cc(O)c(=O)c(C(=O)O)n2)cc1OC [Compound 417] | 0.1 to 1
O=C(O)c1nn(-c2ccc(N3CCCCC3)cc2)cc(O)c1=O [Compound 28] | ≥ 1
